Laboratory results published in ChEMBL document CHEMBL4739711, “Method of inhibiting DYRK1B” (2020).
Values belong to the compound of their own block, whether it stands above or below them. Calls of active or inactive are those of the source. The calls are words filed in the database; no cut-off is given here.

What was measured:
[1] = target: T1, Zinc finger protein GLI1 (Homo sapiens) (UniProt P08151); assay: Inhibition of GLI in SAG stimulated human Daoy cells assessed as prevention of Hedgehog signaling by measuring reduction of PTCH1 expression at 20 uM in presence of siRNA for SUFU by Western blot analysis; type: tissue-based
T1 sequence (whole entry): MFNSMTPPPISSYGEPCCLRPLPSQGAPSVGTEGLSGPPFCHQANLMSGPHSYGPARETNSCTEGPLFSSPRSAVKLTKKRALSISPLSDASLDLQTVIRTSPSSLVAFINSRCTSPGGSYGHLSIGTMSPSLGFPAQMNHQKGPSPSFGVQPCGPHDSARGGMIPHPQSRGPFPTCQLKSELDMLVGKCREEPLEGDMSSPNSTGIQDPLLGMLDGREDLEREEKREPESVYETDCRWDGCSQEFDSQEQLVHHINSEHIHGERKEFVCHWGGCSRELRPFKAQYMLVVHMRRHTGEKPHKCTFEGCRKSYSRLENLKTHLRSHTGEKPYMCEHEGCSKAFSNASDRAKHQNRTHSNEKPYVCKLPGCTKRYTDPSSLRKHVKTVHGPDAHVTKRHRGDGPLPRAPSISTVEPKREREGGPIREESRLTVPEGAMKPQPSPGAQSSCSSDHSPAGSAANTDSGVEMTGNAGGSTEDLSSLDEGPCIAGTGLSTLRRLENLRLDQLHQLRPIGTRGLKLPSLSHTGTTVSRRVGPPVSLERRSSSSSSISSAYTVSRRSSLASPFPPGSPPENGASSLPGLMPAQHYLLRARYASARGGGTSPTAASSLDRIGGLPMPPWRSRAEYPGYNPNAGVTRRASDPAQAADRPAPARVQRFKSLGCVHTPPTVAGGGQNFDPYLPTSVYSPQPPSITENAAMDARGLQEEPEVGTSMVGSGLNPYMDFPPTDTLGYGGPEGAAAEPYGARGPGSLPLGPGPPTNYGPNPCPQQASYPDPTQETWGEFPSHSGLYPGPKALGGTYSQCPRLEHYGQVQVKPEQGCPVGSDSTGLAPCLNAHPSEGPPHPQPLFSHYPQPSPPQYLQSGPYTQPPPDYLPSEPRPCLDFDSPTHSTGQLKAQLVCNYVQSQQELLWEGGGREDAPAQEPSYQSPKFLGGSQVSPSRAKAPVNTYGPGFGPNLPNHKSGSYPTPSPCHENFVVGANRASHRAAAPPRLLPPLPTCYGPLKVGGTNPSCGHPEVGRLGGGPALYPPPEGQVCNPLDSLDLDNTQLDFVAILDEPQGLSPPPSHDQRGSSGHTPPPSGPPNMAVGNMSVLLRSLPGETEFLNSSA

[2] = target: T1, Zinc finger protein GLI1 (Homo sapiens); assay: Inhibition of GLI in SAG stimulated human Daoy cells assessed as prevention of Hedgehog signaling by measuring reduction of GLI expression at 20 uM in presence of siRNA for SUFU by Western blot analysis; type: tissue-based
[3] = target: Dual specificity tyrosine-phosphorylation-regulated kinase 1B (Homo sapiens) (UniProt Q9Y463); assay: Inhibition of DYRK1B in SAG stimulated human Daoy cells assessed as prevention of Hedgehog signaling by measuring reduction of GLI expression at 1 to 5 uM by Western blot analysis; type: tissue-based; conditions: dose 1-5 µM
[4] = target: Dual specificity tyrosine-phosphorylation-regulated kinase 1B (Homo sapiens) (UniProt Q9Y463); assay: Inhibition of DYRK1B in SAG stimulated human Daoy cells assessed as prevention of Hedgehog signaling by measuring reduction of PTCH1 expression at 10 to 25 uM by Western blot analysis; type: tissue-based; conditions: dose 10-25 µM
[5] = target: Dual specificity tyrosine-phosphorylation-regulated kinase 1B (Homo sapiens) (UniProt Q9Y463); assay: Inhibition of DYRK1B in SAG stimulated human Daoy cells assessed as prevention of Hedgehog signaling by measuring reduction of GLI expression at 10 to 25 uM by Western blot analysis; type: tissue-based; conditions: dose 10-25 µM
[6] = target: Protein smoothened (Mus musculus) (UniProt P56726); assay: Inhibition of SMO in SAG stimulated mouse BCC cells assessed as prevention of Hedgehog signaling by measuring reduction of GLI expression at 10 to 25 uM by Western blot analysis; type: cell-based; conditions: dose 10-25 µM
[7] = target: Dual specificity tyrosine-phosphorylation-regulated kinase 1B (Homo sapiens) (UniProt Q9Y463); assay: Inhibition of DYRK1B in human PANC-1 cell assessed as prevention of Hedgehog signaling by measuring reduction of GLI expression at 10 to 25 uM by Western blot analysis; type: tissue-based; conditions: dose 10-25 µM
[8] = system: PANC-1; assay: Inhibition of colony formation in human PANC-1 cells at 10 to 25 uM; type: functional, cell-based; conditions: dose 10-25 µM
[9] = target: Dual specificity tyrosine-phosphorylation-regulated kinase 1B (Homo sapiens) (UniProt Q9Y463); assay: Inhibition of DYRK1B in human A673 cells assessed as prevention of Hedgehog signaling by measuring reduction of GLI expression at 10 to 25 uM by Western blot analysis; type: cell-based; conditions: dose 10-25 µM
[10] = system: PANC-1; assay: Toxicity in human PANC-1 cells assessed as effect on cell viability at 10 to 25 uM; type: cell-based; conditions: panc-1, 25 µM, dose 10-25 µM
[11] = system: PANC-1; assay: Toxicity in human PANC-1 cells assessed as effect on cell viability at 0.5 uM; type: cell-based; conditions: panc-1, 0.5 µM
[12] = system: PANC-1; assay: Inhibition of colony formation in human PANC-1 cells at 0.5 uM; type: functional, cell-based

Dual specificity tyrosine-phosphorylation-regulated kinase 1B (Homo sapiens), sequence (Q9Y463 whole entry, looked up): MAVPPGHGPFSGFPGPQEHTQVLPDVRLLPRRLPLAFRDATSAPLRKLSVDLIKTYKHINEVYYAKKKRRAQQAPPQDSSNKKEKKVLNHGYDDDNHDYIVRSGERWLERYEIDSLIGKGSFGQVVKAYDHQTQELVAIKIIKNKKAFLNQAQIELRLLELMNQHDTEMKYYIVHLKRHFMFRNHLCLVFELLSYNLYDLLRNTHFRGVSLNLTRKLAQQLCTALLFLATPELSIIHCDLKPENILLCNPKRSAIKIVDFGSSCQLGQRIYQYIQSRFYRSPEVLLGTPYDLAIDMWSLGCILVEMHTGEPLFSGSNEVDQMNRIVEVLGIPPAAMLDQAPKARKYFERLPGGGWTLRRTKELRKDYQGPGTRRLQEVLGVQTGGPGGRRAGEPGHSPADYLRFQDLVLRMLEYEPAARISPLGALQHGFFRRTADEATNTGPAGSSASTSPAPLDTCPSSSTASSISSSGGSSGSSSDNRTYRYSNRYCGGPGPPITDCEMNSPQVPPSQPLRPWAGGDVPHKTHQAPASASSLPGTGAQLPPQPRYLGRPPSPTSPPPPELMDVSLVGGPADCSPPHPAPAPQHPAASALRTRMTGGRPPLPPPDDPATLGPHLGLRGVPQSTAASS
Protein smoothened (Mus musculus), sequence (P56726 whole entry): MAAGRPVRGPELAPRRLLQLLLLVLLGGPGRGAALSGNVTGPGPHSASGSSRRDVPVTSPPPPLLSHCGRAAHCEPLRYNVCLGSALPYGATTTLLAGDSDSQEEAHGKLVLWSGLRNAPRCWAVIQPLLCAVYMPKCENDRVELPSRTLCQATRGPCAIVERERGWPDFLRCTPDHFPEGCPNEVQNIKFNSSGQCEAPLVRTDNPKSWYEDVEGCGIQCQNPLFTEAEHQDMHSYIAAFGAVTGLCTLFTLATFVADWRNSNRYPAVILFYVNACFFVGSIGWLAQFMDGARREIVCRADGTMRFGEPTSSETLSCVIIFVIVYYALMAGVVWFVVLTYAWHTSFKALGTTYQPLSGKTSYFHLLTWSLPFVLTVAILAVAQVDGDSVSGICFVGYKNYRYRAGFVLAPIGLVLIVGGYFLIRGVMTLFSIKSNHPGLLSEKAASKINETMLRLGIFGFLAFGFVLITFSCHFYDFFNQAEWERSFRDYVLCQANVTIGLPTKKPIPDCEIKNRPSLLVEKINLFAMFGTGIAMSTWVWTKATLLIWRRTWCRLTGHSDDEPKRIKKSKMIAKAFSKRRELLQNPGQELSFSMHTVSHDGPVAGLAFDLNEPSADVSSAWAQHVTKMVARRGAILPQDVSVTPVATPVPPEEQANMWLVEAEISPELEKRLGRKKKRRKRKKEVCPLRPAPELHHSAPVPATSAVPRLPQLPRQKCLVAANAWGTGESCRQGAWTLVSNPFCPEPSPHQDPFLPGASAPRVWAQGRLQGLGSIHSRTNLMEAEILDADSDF

inhibition [1]: Active
inhibition [2]: Active
Compound: CN(C)c1ccccc1CN1CCCN(Cc2ccccc2N(C)C)C1c1ccncc1

inhibition [3]: Active
Compound: FC(F)(F)c1ccc2[nH]c(Nc3ncccn3)nc2c1

Compound: COc1ccc2c(c1)[nH]c1c(C)nccc12 [HARMINE]
inhibition [4]: Active
inhibition [5]: Active
inhibition [6]: Active
inhibition [7]: Active
inhibition [8]: Active
inhibition [9]: Active
Activity [10]: Non-Toxic

Compound: CS(=O)(=O)c1ccc(C(=O)Nc2ccc(Cl)c(-c3ccccn3)c2)c(Cl)c1 [VISMODEGIB]
Activity [11]: Non-Toxic
inhibition [12]: inactive
